According to patent US6331553A, “Aromatic amine derivatives having NOS inhibiting action” (Chugai Seiyaku Kabushiki Kaisha, priority 1996, dated 2001):

What was measured:
iNOS [1] = conditions: reported in the literature; cited from earlier work
nNOS [2] = conditions: reported in the literature; cited from earlier work
iNOS [3] = molecular target: T1, iNOS (Rattus norvegicus, UniProt Q06518); test: Inhibitory effect on crude iNOS (conversion of L-[3H]arginine to L-[3H]citrulline); format: biochemical, Rats (lungs, LPS treated); conditions: mean values, duplicate, crude enzyme from lungs of LPS-treated rats; 37° C. 10 min; read-out: Inhibitory action IC50 iNOS
T1 construct: a soluble cytosolic fraction of the finally obtained supernatant was used as the crude enzyme of iNOS; from tissue; host or cells: lungs of LPS-treated rats, soluble cytosolic fraction (100,000×g supernatant)
Protocol: Compounds of the invention were evaluated for their inhibitory effect on the presently known three NOS isoforms.
The crude enzyme of iNOS was prepared by the following procedure. Rats were administered LPS (10 mg/kg) intraperitoneally and, 6 h later, perfused in a transcardiac manner with physiological saline containing 10 U/ml of heparin; thereafter, lungs were taken out. Subsequently, 5 volumes of 50 mM Tris-HCl containing 1 mM DTT (pH 7.4) was added and the mixture was homogenized for 3 min, followed by centrifugation of the homogenate at 1,000×g for 10 min. The resulting supernatant was centrifuged at 100,000×g for 60 min and a soluble cytosolic fraction of the finally obtained supernatant was used as the crude enzyme of iNOS.
The reaction was started by addition of L-[^3 H] arginine. After incubation at 37° C. for 10 min, the reaction was terminated by addition of 2 ml of 50 mM Tris-HCl (pH 5.5) containing 1 mM EDTA and placing the mixture on ice. The reaction solution was passed through a cation-exchange resin column (Dowex AG50WX-8, Na^+ form, 3.2 ml) to separate the reaction product L-[^3 H] citrulline from the unreacted residual substrate L-[^3 H] arginine. The eluate was combined with another eluate resulting from the passage of a given amount of distilled water through the column and put into a minivial for recovery of L-[^3 H] citrulline. Thereafter, a scintillation fluid was added and the contained radioactivity was measured with a liquid scintillation counter to determine the amount of L-[^3 H] citrulline.
The activity of nNOS or eNOS was determined by subtracting the activity detected in the absence of CaCl2 and calmodulin from the activity detected in the presence of CaCl2 and calmodulin. The activity of iNOS was detected in the absence of CaCl2 and calmodulin. The protein concentration of each crude enzyme sample was determined with a micro-assay kit of Bio Rad Co. Each Experiment was conducted in a duplicate.
The table also lists the ratios of IC50 values to each other as an index of selectivity.

nNOS [4] = conditions: mouse model of focal cerebral ischemia; cited from earlier work
NOS isoform = conditions: reported in the literature; cited from earlier work

SMILES | selectivity for iNOS (iNOS [1]) | selectivity for nNOS (nNOS [2]) | other results
N=C(N)NN [AG, aminoguanidine] | a certain degree of selectivity for iNOS |  | 
CCSC(=N)NCCC[C@H](N)C(=O)O [L-EIN, S-ethyl-L-thiocitrulline] |  | a certain degree of selectivity for nNOS | 
CSC(=N)NCCC[C@H](N)C(=O)O [L-MIN, S-methyl-L-thiocitrulline] |  | a certain degree of selectivity for nNOS | 
N=C(NCCC[C@H](N)C(=O)O)N[N+](=O)[O-] [L-NA, N^G -nitro-L-arginine, reference compound] |  |  | IC50 (iNOS [3]): 3.46 µM; percent inhibition of nNOS activity and percent reduction of infarct volume (nNOS [4]): correlate to each other
COC(=O)[C@@H](N)CCCNC(=N)N[N+](=O)[O-] [L-NAME, N^G -nitro-L-arginine methyl ester] |  |  | highly selective inhibitory effect on a specific NOS isoform (NOS isoform): no existing NOS inhibitors including L-NA and N^G -nitro-L-arginine methyl ester (L-NAME) have a highly selective inhibitory effect on a specific NOS isoform
CC(=N)NCCC[C@H](N)C(=O)O [L-NIO, N^G -iminoethyl-L-ornithine] | a certain degree of selectivity for iNOS |  | 
